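Method: 48-hour compound exposure of cells in 96-well plates, five concentrations, linear interpolation of endpoints. GI50 = concentration required for 50% inhibition of growth. TGI: total growth inhibition.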
What was measured:
Experiment in all cases: NCI-60 cell line screen, 48 h
MDA-MB-231 breast = test system: MDA-MB-231 breast
786-0 renal = test system: 786-0 renal
HL-60(TB) leukemia = test system: HL-60(TB) leukemia
LOX IMVI melanoma = test system: LOX IMVI melanoma
COLO 205 colon = test system: COLO 205 colon
T-47D breast = test system: T-47D breast
A498 renal = test system: A498 renal
ACHN renal = test system: ACHN renal
NCI-H522 lung = test system: NCI-H522 lung
SF-539 CNS = test system: SF-539 CNS
SR leukemia = test system: SR leukemia
K-562 leukemia = test system: K-562 leukemia
OVCAR-3 ovarian = test system: OVCAR-3 ovarian
PC-3 prostate = test system: PC-3 prostate
BT-549 breast = test system: BT-549 breast
SNB-75 CNS = test system: SNB-75 CNS
NCI-H23 lung = test system: NCI-H23 lung
IGROV1 ovarian = test system: IGROV1 ovarian
EKVX NSCLC = test system: EKVX NSCLC
RXF 393 renal = test system: RXF 393 renal
HOP-62 NSCLC = test system: HOP-62 NSCLC
M14 melanoma = test system: M14 melanoma
SF-268 CNS = test system: SF-268 CNS
KM12 colon = test system: KM12 colon
MCF7 breast = test system: MCF7 breast
NCI/ADR-RES ovarian = test system: NCI/ADR-RES ovarian
A549 NSCLC = test system: A549 NSCLC
RPMI-8226 leukemia = test system: RPMI-8226 leukemia
CAKI-1 renal = test system: CAKI-1 renal
HS 578T breast = test system: HS 578T breast
SNB-19 CNS = test system: SNB-19 CNS
TK-10 renal = test system: TK-10 renal
SF-295 CNS = test system: SF-295 CNS
HCT-116 colon = test system: HCT-116 colon
HOP-92 NSCLC = test system: HOP-92 NSCLC
HT29 colon = test system: HT29 colon
SK-MEL-5 melanoma = test system: SK-MEL-5 melanoma
HCC-2998 colon = test system: HCC-2998 colon
OVCAR-8 ovarian = test system: OVCAR-8 ovarian
CCRF-CEM leukemia = test system: CCRF-CEM leukemia
MALME-3M melanoma = test system: MALME-3M melanoma
SK-OV-3 ovarian = test system: SK-OV-3 ovarian
SN12C renal = test system: SN12C renal
UACC-62 melanoma = test system: UACC-62 melanoma
SK-MEL-28 melanoma = test system: SK-MEL-28 melanoma
DU-145 prostate = test system: DU-145 prostate
NCI-H226 lung = test system: NCI-H226 lung
SK-MEL-2 melanoma = test system: SK-MEL-2 melanoma
SW-620 colon = test system: SW-620 colon
HCT-15 colon = test system: HCT-15 colon
MDA-MB-435 = test system: MDA-MB-435
UACC-257 melanoma = test system: UACC-257 melanoma
MOLT-4 leukemia = test system: MOLT-4 leukemia
U251 CNS = test system: U251 CNS
UO-31 renal = test system: UO-31 renal
NCI-H460 lung = test system: NCI-H460 lung
OVCAR-5 ovarian = test system: OVCAR-5 ovarian

`C#CCn1cnc2cnc(Nc3cccc(NC(=O)CCl)c3)nc21` was tested, and the GI50 (MDA-MB-231 breast) was 20.8 µM, the TGI (MDA-MB-231 breast) was over 62.5 µM and the GI50 (786-0 renal) was 23.3 µM. It also gave a TGI (786-0 renal) of over 62.5 µM, a GI50 (HL-60(TB) leukemia) of 15.7 µM and a TGI (HL-60(TB) leukemia) of 41.3 µM. For the same compound, the GI50 (LOX IMVI melanoma) was 16.3 µM, the TGI (LOX IMVI melanoma) was over 62.5 µM and the GI50 (COLO 205 colon) was 15.2 µM. It also gave a TGI (COLO 205 colon) of 45 µM, a GI50 (T-47D breast) of over 62.5 µM and a TGI (T-47D breast) of over 62.5 µM. The GI50 (A498 renal) was 21 µM, the TGI (A498 renal) was over 62.5 µM and the GI50 (ACHN renal) was 10.9 µM. The TGI (ACHN renal) was 23.3 µM, the GI50 (NCI-H522 lung) was 10.3 µM and the TGI (NCI-H522 lung) was 22.4 µM. It also gave a GI50 (SF-539 CNS) of 16.9 µM, a TGI (SF-539 CNS) of over 62.5 µM and a GI50 (SR leukemia) of 56.8 µM. The TGI (SR leukemia) was over 62.5 µM, the GI50 (K-562 leukemia) was 23.7 µM and the TGI (K-562 leukemia) was over 62.5 µM. The GI50 (OVCAR-3 ovarian) was 15.2 µM, the TGI (OVCAR-3 ovarian) was over 62.5 µM and the GI50 (PC-3 prostate) was 27.7 µM. It also gave a TGI (PC-3 prostate) of over 62.5 µM, a GI50 (BT-549 breast) of 13.3 µM and a TGI (BT-549 breast) of over 62.5 µM. It also gave a GI50 (SNB-75 CNS) of 8.18 µM, a TGI (SNB-75 CNS) of over 62.5 µM and a GI50 (NCI-H23 lung) of 38.8 µM. The TGI (NCI-H23 lung) was over 62.5 µM, the GI50 (IGROV1 ovarian) was 6.99 µM and the TGI (IGROV1 ovarian) was 22.3 µM. The GI50 (EKVX NSCLC) was over 62.5 µM, the TGI (EKVX NSCLC) was over 62.5 µM and the GI50 (RXF 393 renal) was 10.1 µM. It also gave a TGI (RXF 393 renal) of 25.4 µM, a GI50 (HOP-62 NSCLC) of 54.7 µM and a TGI (HOP-62 NSCLC) of over 62.5 µM. The GI50 (M14 melanoma) was 22.5 µM, the TGI (M14 melanoma) was over 62.5 µM and the GI50 (SF-268 CNS) was 25.8 µM. It also gave a TGI (SF-268 CNS) of over 62.5 µM, a GI50 (KM12 colon) of 21.1 µM and a TGI (KM12 colon) of over 62.5 µM. It also gave a GI50 (MCF7 breast) of 15.3 µM, a TGI (MCF7 breast) of over 62.5 µM and a GI50 (NCI/ADR-RES ovarian) of 26.4 µM. It also gave a TGI (NCI/ADR-RES ovarian) of over 62.5 µM, a GI50 (A549 NSCLC) of 20 µM and a TGI (A549 NSCLC) of over 62.5 µM. For the same compound, the GI50 (RPMI-8226 leukemia) was 19.2 µM, the TGI (RPMI-8226 leukemia) was over 62.5 µM and the GI50 (CAKI-1 renal) was 22.9 µM. For the same compound, the TGI (CAKI-1 renal) was over 62.5 µM, the GI50 (HS 578T breast) was 17.3 µM and the TGI (HS 578T breast) was over 62.5 µM. For the same compound, the GI50 (SNB-19 CNS) was 36.5 µM, the TGI (SNB-19 CNS) was over 62.5 µM and the GI50 (TK-10 renal) was 22.9 µM. It also gave a TGI (TK-10 renal) of over 62.5 µM, a GI50 (SF-295 CNS) of 47.1 µM and a TGI (SF-295 CNS) of over 62.5 µM. For the same compound, the GI50 (HCT-116 colon) was 21.3 µM, the TGI (HCT-116 colon) was over 62.5 µM and the GI50 (HOP-92 NSCLC) was over 62.5 µM. The TGI (HOP-92 NSCLC) was over 62.5 µM, the GI50 (HT29 colon) was 17.3 µM and the TGI (HT29 colon) was over 62.5 µM. It also gave a GI50 (SK-MEL-5 melanoma) of 10.3 µM, a TGI (SK-MEL-5 melanoma) of 19.5 µM and a GI50 (HCC-2998 colon) of 46.8 µM. It also gave a TGI (HCC-2998 colon) of over 62.5 µM, a GI50 (OVCAR-8 ovarian) of 26.3 µM and a TGI (OVCAR-8 ovarian) of over 62.5 µM. For the same compound, the GI50 (CCRF-CEM leukemia) was 15.3 µM, the TGI (CCRF-CEM leukemia) was over 62.5 µM and the GI50 (MALME-3M melanoma) was 23.2 µM. The TGI (MALME-3M melanoma) was over 62.5 µM, the GI50 (SK-OV-3 ovarian) was 23.6 µM and the TGI (SK-OV-3 ovarian) was over 62.5 µM. The GI50 (SN12C renal) was 19.4 µM, the TGI (SN12C renal) was over 62.5 µM and the GI50 (UACC-62 melanoma) was 22.6 µM. It also gave a TGI (UACC-62 melanoma) of over 62.5 µM, a GI50 (SK-MEL-28 melanoma) of 25.3 µM and a TGI (SK-MEL-28 melanoma) of over 62.5 µM. For the same compound, the GI50 (DU-145 prostate) was 29.8 µM, the TGI (DU-145 prostate) was over 62.5 µM and the GI50 (NCI-H226 lung) was 49.9 µM. It also gave a TGI (NCI-H226 lung) of over 62.5 µM, a GI50 (SK-MEL-2 melanoma) of 43 µM and a TGI (SK-MEL-2 melanoma) of over 62.5 µM. It also gave a GI50 (SW-620 colon) of 19.1 µM, a TGI (SW-620 colon) of over 62.5 µM and a GI50 (HCT-15 colon) of 29.3 µM. For the same compound, the TGI (HCT-15 colon) was over 62.5 µM, the GI50 (MDA-MB-435) was 28.5 µM and the TGI (MDA-MB-435) was over 62.5 µM. It also gave a GI50 (UACC-257 melanoma) of 51 µM, a TGI (UACC-257 melanoma) of over 62.5 µM and a GI50 (MOLT-4 leukemia) of 21.5 µM. The TGI (MOLT-4 leukemia) was over 62.5 µM, the GI50 (U251 CNS) was 19.6 µM and the TGI (U251 CNS) was over 62.5 µM. The GI50 (UO-31 renal) was 10.9 µM, the TGI (UO-31 renal) was 55.3 µM and the GI50 (NCI-H460 lung) was 22.7 µM. It also gave a TGI (NCI-H460 lung) of over 62.5 µM, a GI50 (OVCAR-5 ovarian) of 29.8 µM and a TGI (OVCAR-5 ovarian) of over 62.5 µM.
